Assay results published in US8076338B2, “Kinase modulators and methods of use” (Exelixis, Inc., priority 2004, dated 2011).
Read-outs that look alike come from different tables or passages of the source.

Assays:
AktK = AktK (Homo sapiens, UniProt P31749); experiment: Luciferase-coupled chemiluminescence kinase assay (ATP consumption); format: biochemical; settings: read-out: AKT-1 IC50
Method in brief: (§1)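 Activity is read as ATP depletion: luciferase-luciferin reagent added after a 3 h ambient-temperature kinase reaction, with total ATP use limited to 25-60%. Before ATP addition, 2.5-5 nM kinase and compound were preincubated 30 min in Tris pH 7.5/MgCl2/TX-100/DTT buffer; […].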

p70S6K = p70S6K (Homo sapiens, UniProt P23443); experiment: as above; format: biochemical
Method in brief: as §1

p70S6K, sequence (P23443 whole entry): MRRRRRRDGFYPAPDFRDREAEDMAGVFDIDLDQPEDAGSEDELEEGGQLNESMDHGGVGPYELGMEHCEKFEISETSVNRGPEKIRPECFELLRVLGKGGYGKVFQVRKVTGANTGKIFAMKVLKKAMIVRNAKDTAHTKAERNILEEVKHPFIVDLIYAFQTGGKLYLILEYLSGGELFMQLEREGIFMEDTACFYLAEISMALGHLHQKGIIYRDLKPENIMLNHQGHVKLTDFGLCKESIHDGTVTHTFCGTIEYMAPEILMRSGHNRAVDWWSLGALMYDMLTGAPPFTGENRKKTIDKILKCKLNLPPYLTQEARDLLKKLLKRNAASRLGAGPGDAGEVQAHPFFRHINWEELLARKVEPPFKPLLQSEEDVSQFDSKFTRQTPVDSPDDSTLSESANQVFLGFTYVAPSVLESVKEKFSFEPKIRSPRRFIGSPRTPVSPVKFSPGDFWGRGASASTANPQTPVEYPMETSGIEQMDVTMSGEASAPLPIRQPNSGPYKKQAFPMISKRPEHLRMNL
AktK, sequence (P31749 whole entry): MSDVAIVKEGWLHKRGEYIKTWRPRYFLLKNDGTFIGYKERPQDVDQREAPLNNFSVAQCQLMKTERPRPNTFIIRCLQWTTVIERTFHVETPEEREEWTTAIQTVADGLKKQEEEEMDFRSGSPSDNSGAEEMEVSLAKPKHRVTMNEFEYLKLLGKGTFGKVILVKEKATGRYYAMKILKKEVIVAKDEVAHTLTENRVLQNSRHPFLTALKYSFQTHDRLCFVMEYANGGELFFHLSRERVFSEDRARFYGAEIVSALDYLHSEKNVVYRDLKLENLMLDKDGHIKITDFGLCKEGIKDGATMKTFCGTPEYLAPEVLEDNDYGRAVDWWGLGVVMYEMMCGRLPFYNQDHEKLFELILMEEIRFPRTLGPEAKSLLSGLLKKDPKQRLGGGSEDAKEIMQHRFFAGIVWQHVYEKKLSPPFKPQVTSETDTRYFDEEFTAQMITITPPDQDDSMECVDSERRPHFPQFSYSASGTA

Cc1c(NCCN2CCCC2)cc(CCC(C)(C)C)cc1N1CCN(c2ncnc3[nH]nc(Br)c23)CC1 [Entry 244, 3-[4-(3-bromo-1H-pyrazolo[3,4-d]pyrimidin-4-yl)piperazin-1-yl]-5-(3,3-dimethylbutyl)-2-methyl-N-(2-pyrrolidin-1-ylethyl)aniline]
IC50 (AktK; Table 1, class symbols per key): < 100 nM | IC50 (p70S6K; Table 1, class symbols per key): < 100 nM

Cc1c(NCCN2CCCC2)cc(C(=O)Nc2ccccc2Cl)cc1N1CCN(c2ncnc3[nH]nc(Br)c23)CC1 [Entry 204, 3-[4-(3-bromo-1H-pyrazolo[3,4-d]pyrimidin-4-yl)piperazin-1-yl]-N-(2-chlorophenyl)-4-methyl-5-[(2-pyrrolidin-1-ylethyl)amino]benzamide]
IC50 (AktK; Table 1, class symbols per key): < 100 nM | IC50 (p70S6K; Table 1, class symbols per key): < 100 nM

Cc1c(CCCN2CCCC2)cc(Cl)cc1N1CCN(c2ncnc3[nH]nc(/C=C/C(=O)O)c23)CC1 [Entry 181, (2E)-3-(4-{4-[5-chloro-2-methyl-3-(3-pyrrolidin-1-ylpropyl)phenyl]piperazin-1-yl}-1H-pyrazolo[3,4-d]pyrimidin-3-yl)prop-2-enoic acid]
IC50 (AktK; Table 1, class symbols per key): < 100 nM | IC50 (p70S6K; Table 1, class symbols per key): < 100 nM

Cc1c(NCCN2CCCC2)cc(C(=O)N2CCCC2)cc1N1CCN(c2ncnc3[nH]nc(Br)c23)CC1 [Entry 201, 3-[4-(3-bromo-1H-pyrazolo[3,4-d]pyrimidin-4-yl)piperazin-1-yl]-2-methyl-5-(pyrrolidin-1-ylcarbonyl)-N-(2-pyrrolidin-1-ylethyl)aniline]
IC50 (AktK; Table 1, class symbols per key): 100 to 1000 nM | IC50 (p70S6K; Table 1, class symbols per key): < 100 nM

Cc1c(CCCN2CCCC2)cc(OCC(C)C)cc1N1CCN(c2ncnc3[nH]nc(Br)c23)CC1 [Entry 240, 3-bromo-4-{4-[2-methyl-5-[(2-methylpropyl)oxy]-3-(3-pyrrolidin-1-ylpropyl)phenyl]piperazin-1-yl}-1H-pyrazolo[3,4-d]pyrimidine]
IC50 (AktK; Table 1, class symbols per key): < 100 nM | IC50 (p70S6K; Table 1, class symbols per key): < 100 nM

COCCOc1cc(NCCN2CCCC2)c(C)c(N2CCN(c3ncnc4[nH]nc(Br)c34)CC2)c1 [Entry 223, 3-[4-(3-bromo-1H-pyrazolo[3,4-d]pyrimidin-4-yl)piperazin-1-yl]-2-methyl-5-{[2-(methyl-oxy)ethyl]oxy}-N-(2-pyrrolidin-1-ylethyl)aniline]
IC50 (AktK; Table 1, class symbols per key): 100 to 1000 nM | IC50 (p70S6K; Table 1, class symbols per key): < 100 nM

Cc1c(OCCN2CCCC2)cc(Cl)cc1N1CCN(c2ncnc3[nH]nc(C(F)(F)F)c23)CC1 [Entry 39, 4-(4-{5-chloro-2-methyl-3-[(2-pyrrolidin-1-ylethyl)oxy]phenyl}piperazin-1-yl)-3-(trifluoromethyl)-1H-pyrazolo[3,4-d]pyrimidine]
IC50 (AktK; Table 1, class symbols per key): 100 to 1000 nM | IC50 (p70S6K; Table 1, class symbols per key): < 100 nM

CCc1n[nH]c2ncnc(N3CCN(c4cc(Cl)cc(C(=O)OC)c4OC)CC3)c12 [Entry 368, methyl 5-chloro-3-[4-(3-ethyl-1H-pyrazolo[3,4-d]pyrimidin-4-yl)piperazin-1-yl]-2-(methyloxy)benzoate]
IC50 (AktK): 1000 to 10000 nM | IC50 (p70S6K): 100 to 1000 nM

CCc1n[nH]c2ncnc(N3CCN(c4cc(Cl)c(OC)cc4C)CC3)c12 [Entry 390, 4-{4-[5-chloro-2-methyl-4-(methyloxy)phenyl]piperazin-1-yl}-3-ethyl-1H-pyrazolo[3,4-d]pyrimidine]
IC50 (AktK): 1000 to 10000 nM | IC50 (p70S6K): < 100 nM

Cc1ccc(Cl)cc1N1CCN(c2ncnc3[nH]nc(Br)c23)CC1=O [Entry 183, 4-(3-bromo-1H-pyrazolo[3,4-d]pyrimidin-4-yl)-1-(5-chloro-2-methylphenyl)piperazin-2-one]
IC50 (AktK; Table 1, class symbols per key): ≥ 10000 nM | IC50 (p70S6K; Table 1, class symbols per key): < 100 nM

CCc1n[nH]c2ncnc(N3CCN(c4cc(F)cc(Br)c4Cl)CC3)c12 [Entry 114, 4-[4-(3-bromo-2-chloro-5-fluorophenyl)piperazin-1-yl]-3-ethyl-1H-pyrazolo[3,4-d]pyrimidine]
IC50 (AktK; Table 1, class symbols per key): ≥ 10000 nM | IC50 (p70S6K; Table 1, class symbols per key): 100 to 1000 nM

Cc1c(NCCN2CCCC2)cc(OC(C)C)cc1N1CCN(c2ncnc3[nH]nc(Br)c23)CC1 [Entry 220, 3-[4-(3-bromo-1H-pyrazolo[3,4-d]pyrimidin-4-yl)piperazin-1-yl]-2-methyl-5-[(1-methylethyl)oxy]-N-(2-pyrrolidin-1-ylethyl)aniline]
IC50 (AktK; Table 1, class symbols per key): < 100 nM | IC50 (p70S6K; Table 1, class symbols per key): < 100 nM

CCc1n[nH]c2ncnc(N3CCCN(c4cccc(Cl)c4)CC3)c12 [Entry 343, 4-[4-(3-chlorophenyl)-1,4-diazepan-1-yl]-3-ethyl-1H-pyrazolo[3,4-d]pyrimidine]
IC50 (AktK): ≥ 10000 nM | IC50 (p70S6K): 100 to 1000 nM

Cc1c(NCCN2CCCC2)cc(Cl)cc1N1CCN(c2ncnc3[nH]nc(CC(C)C)c23)CC1 [Entry 162, 5-chloro-2-methyl-3-{4-[3-(2-methylpropyl)-1H-pyrazolo[3,4-d]pyrimidin-4-yl]piperazin-1-yl}-N-(2-pyrrolidin-1-ylethyl)aniline]
IC50 (AktK; Table 1, class symbols per key): 100 to 1000 nM | IC50 (p70S6K; Table 1, class symbols per key): < 100 nM

Clc1ccc(-c2ccccc2OCCN2CCCC2)cc1N1CCN(c2ncnc3[nH]nc(Br)c23)CC1 [Entry 287, 3-bromo-4-(4-{4-chloro-2′-[(2-pyrrolidin-1-ylethyl)oxy]biphenyl-3-yl}piperazin-1-yl)-1H-pyrazolo[3,4-d]pyrimidine]
IC50 (AktK; Table 1, class symbols per key): < 100 nM | IC50 (p70S6K; Table 1, class symbols per key): < 100 nM

Cc1c(NCCN(C)C)cc(C(=O)NC(C)C)cc1N1CCN(c2ncnc3[nH]nc(Br)c23)CC1 [Entry 227, 3-[4-(3-bromo-1H-pyrazolo[3,4-d]pyrimidin-4-yl)piperazin-1-yl]-5-{[2-(dimethylamino)eth-yl]amino}-4-methyl-N-(1-methylethyl)benzamide]
IC50 (AktK; Table 1, class symbols per key): < 100 nM | IC50 (p70S6K; Table 1, class symbols per key): < 100 nM

CCc1n[nH]c2ncnc(N3CCN(c4cccc(Cl)c4)C(C(=O)NC4CCN(C)CC4)C3)c12 (stereo not drawn) [Entry 382, 1-(3-chlorophenyl)-4-(3-ethyl-1H-pyrazolo[3,4-d]pyrimidin-4-yl)-N-(1-methylpiperidin-4-yl)piperazine-2-carboxamide]
IC50 (AktK): ≥ 10000 nM | IC50 (p70S6K): 1000 to 10000 nM

Cc1ccc(Cl)cc1N1CCN(c2ncnc3[nH]nc(-c4ccc(OCCCN(C)C)cc4)c23)CC1 [Entry 380, 3-[(4-{4-[4-(5-chloro-2-methylphenyl)piperazin-1-yl]-1H-pyrazolo[3,4-d]pyrimidin-3-yl}phenyl)oxy]-N,N-dimethylpropan-1-amine]
IC50 (AktK): 1000 to 10000 nM | IC50 (p70S6K): 1000 to 10000 nM

Fc1ccc(-c2ccc(Cl)c(N3CCN(c4ncnc5[nH]nc(Br)c45)CC3)c2)c(OCCN2CCCC2)c1 [Entry 289, 3-bromo-4-(4-{4-chloro-4′-fluoro-2′-[(2-pyrrolidin-1-ylethyl)oxy]biphenyl-3-yl}piperazin-1-yl)-1H-pyrazolo[3,4-d]pyrimidine]
IC50 (AktK): < 100 nM | IC50 (p70S6K): < 100 nM

Cc1ccc(Cl)cc1N1CCN(c2ncnc3[nH]nc(Br)c23)CC1 [Entry 329, 3-bromo-4-[4-(5-chloro-2-methylphenyl)piperazin-1-yl]-1H-pyrazolo[3,4-d]pyrimidine]
IC50 (AktK): 100 to 1000 nM | IC50 (p70S6K): < 100 nM

Brc1cc(NCCN2CCCC2)cc(N2CCN(c3ncnc4[nH]nc(Br)c34)CC2)c1 [Entry 265, 3-bromo-5-[4-(3-bromo-1H-pyrazolo[3,4-d]pyrimi-din-4-yl)piperazin-1-yl]-N-(2-pyrrolidin-1-ylethyl)aniline]
IC50 (AktK; Table 1, class symbols per key): < 100 nM | IC50 (p70S6K; Table 1, class symbols per key): < 100 nM

Clc1cc(NCCN2CCCC2)cc(N2CCN(c3ncnc4[nH]nc(Br)c34)CC2)c1 [Entry 267, 3-[4-(3-bromo-1H-pyrazolo[3,4-d]pyrimidin-4-yl)piperazin-1-yl]-5-chloro-N-(2-pyrrolidin-1-ylethyl)aniline]
IC50 (AktK; Table 1, class symbols per key): < 100 nM | IC50 (p70S6K; Table 1, class symbols per key): < 100 nM

Cc1c(CCCN2CCCC2)cc(Cl)cc1N1CCN(c2ncnc3[nH]nc(C(F)(F)F)c23)CC1 [Entry 61, 4-{4-[5-chloro-2-methyl-3-(3-pyrrolidin-1-ylpropyl)phenyl]piperazin-1-yl}-3-(trifluoromethyl)-1H-pyrazolo[3,4-d]pyrimidine]
IC50 (AktK; Table 1, class symbols per key): < 100 nM | IC50 (p70S6K; Table 1, class symbols per key): < 100 nM

CC(C)CCNc1c(F)c(NCCN2CCCC2)nc(N2CCN(c3ncnc4[nH]nc(Br)c34)CC2)c1F [Entry 264, 6-[4-(3-bromo-1H-pyrazolo[3,4-d]pyrimidin-4-yl)piperazin-1-yl]-3,5-difluoro-N~4~-(3-methylbutyl)-N~2~-(2-pyrrolidin-1-ylethyl)pyridine-2,4-diamine]
IC50 (AktK; Table 1, class symbols per key): 100 to 1000 nM | IC50 (p70S6K; Table 1, class symbols per key): < 100 nM

COc1cccc(-c2n[nH]c3ncnc(N4CCN(c5cc(Cl)ccc5C)CC4)c23)c1 [Entry 365, 4-[4-(5-chloro-2-methylphenyl)piperazin-1-yl]-3-[3-(methyloxy)phenyl]-1H-pyrazolo[3,4-d]pyrimidine]
IC50 (AktK): 1000 to 10000 nM | IC50 (p70S6K): 1000 to 10000 nM

Cc1ccc(Cl)cc1N1CCN(c2ncnc3[nH]nc(CC4CCNCC4)c23)CC1 [Entry 394, 4-[4-(5-chloro-2-methylphenyl)piperazin-1-yl]-3-(piperidin-4-ylmethyl)-1H-pyrazolo[3,4-d]pyrimidine]
IC50 (AktK): 1000 to 10000 nM | IC50 (p70S6K): 1000 to 10000 nM

Fc1cc(NCCN2CCCC2)c(Cl)c(N2CCN(c3ncnc4[nH]nc(Br)c34)CC2)c1 [Entry 129, 3-[4-(3-bromo-1H-pyrazolo[3,4-d]pyrimidin-4-yl)piperazin-1-yl]-2-chloro-5-fluoro-N-(2-pyrrolidin-1-ylethyl)aniline]
IC50 (AktK; Table 1, class symbols per key): 100 to 1000 nM | IC50 (p70S6K; Table 1, class symbols per key): < 100 nM

Cc1c(Br)cc(C(=O)Nc2ccccc2)cc1N1CCN(c2ncnc3[nH]nc(Br)c23)CC1 [Entry 191, 3-bromo-5-[4-(3-bromo-1H-pyrazolo[3,4-d]pyrimidin-4-yl)piperazin-1-yl]-4-methyl-N-phenylbenzamide]
IC50 (AktK; Table 1, class symbols per key): 100 to 1000 nM | IC50 (p70S6K; Table 1, class symbols per key): < 100 nM

CCc1n[nH]c2ncnc(N3CCN(c4cc(Cl)cc(CNCCN(C)C)c4OC)CC3)c12 [Entry 378, N′-{[5-chloro-3-[4-(3-ethyl-1H-pyrazolo[3,4-d]pyrimidin-4-yl)piperazin-1-yl]-2-(methyloxy)phe-nyl]methyl}-N,N-dimethylethane-1,2-diamine]
IC50 (AktK): 1000 to 10000 nM | IC50 (p70S6K): 100 to 1000 nM

Cc1c(NCCN2CCCC2)cc(C(=O)C2CC2)cc1N1CCN(c2ncnc3[nH]nc(Br)c23)CC1 [Entry 275, {3-[4-(3-bromo-1H-pyrazolo[3,4-d]pyrimidin-4-yl)piperazin-1-yl]-4-methyl-5-[(2-pyrrolidin-1-ylethyl)amino]phenyl}(cyclopropyl)methanone]
IC50 (AktK; Table 1, class symbols per key): < 100 nM | IC50 (p70S6K; Table 1, class symbols per key): < 100 nM
